Reference: ChEMBL document CHEMBL5143734, “Seco-Lupane Triterpene Derivatives Induce Ferroptosis through GPX4/ACSL4 Axis and Target Cyclin D1 to Block the Cell Cycle” (J Med Chem, 2022)
Calls of active or inactive are those of the source. The rule behind the calls is not given here.

Key:
[1] = Upregulation of Cyclin E1 mRNA expression in human HepG2 cells assessed as fragments per kilo base of exon per million mapped fragments […] (reference value: 11.43 to 14.86); type: functional
HepG2 [2] = test: Induction of ferroptosis in human HepG2 cells assessed as increased in Fe2+ level incubated for 36 hrs; type: functional, cell-based; settings: dose 0.5-2 µM, DDE = dose-dependent effect
HepG2 [3] = test: Inhibition of Cyclin D1 in human HepG2 cells assessed as reduction in CDK6 expression by Western blot analysis; type: cell-based; settings: dose 0.5-2 µM, DDE = dose-dependent effect
HepG2 [4] = test: Cytotoxicity against human HepG2 cells assessed as reduction in cell viability at 5 to 100 uM relative to control; type: functional; settings: dose 5-100 µM
[5] = Inhibition of Cyclin D1 in human HepG2 cells assessed as reduction in CDK4 expression by Western blot analysis; settings: dose 0.5-2 µM, DDE = dose-dependent effect
HepG2 [6] = test: Induction of ferroptosis in human HepG2 cells assessed as upregulation of ACSL4 mRNA expression at 0.25 to 1 uM by qRT-PCR analysis; type: functional, cell-based; settings: dose 0.25-1 µM, time 24-48 hrs, TDE = time-dependent effect
HepG2 [7] = test: Inhibition of Cyclin D1 in human HepG2 cells assessed as reduction in Rb phosphorylation by Western blot analysis; type: cell-based; settings: dose 0.5-2 µM, DDE = dose-dependent effect
HepG2 [8] = test: Downregulation of Cyclin B1 mRNA expression in human HepG2 cells assessed as fragments per kilo base of exon per million mapped fragments by RT-qPCR analysis (reference value: 54.40 to 58.62); type: functional
HepG2 [9] = test: Antiproliferative activity against human HepG2 cells assessed as inhibition of clone formation pretreated for 48 hrs followed by replacement with drug free medium every 3 days for 10 days by crystalline violet staining based assay; type: functional, cell-based; settings: dose 0.5-2 µM, DDE = dose-dependent effect
HepG2 [10] = test: Cytotoxicity against human HepG2 cells assessed as reduction in cell viability at 1.5625 uM incubated for 48 hrs by CCK-8 assay relative to control; type: functional
HepG2 [11] = test: Induction of ferroptosis in human HepG2 cells assessed as decrease in GPX4 protein expression at 2 uM by Western blot analysis; type: functional, cell-based; settings: time 6-36 hrs, TDE = time-dependent effect
HepG2 [12] = test: Inhibition of Cyclin D1 in human HepG2 cells assessed as reduction in E2F expression by Western blot analysis; type: cell-based; settings: dose 0.5-2 µM, DDE = dose-dependent effect
HepG2 [13] = test: Induction of ferroptosis in human HepG2 cells assessed as decrease in GPX4 mRNA expression measured after 36 hrs by qRT-PCR analysis; type: functional, cell-based; settings: dose […], DDE = dose-dependent effect
[14] = target: G1/S-specific cyclin-D1 (Homo sapiens) (UniProt P24385); test: Binding affinity to Cyclin D1 in human HepG2 cells by laser confocal microscopy; type: cell-based
HepG2 [15] = test: Induction of ferroptosis in human HepG2 cells assessed as increase in intracellular ROS level incubated for 48 hrs by DCFH-DA staining based flow cytometry analysis; type: functional, cell-based; settings: dose 0.25-1 µM, DDE = dose-dependent effect
HepG2 [16] = test: Downregulation of Cyclin E1 mRNA expression in human HepG2 cells at 0.5 to 2.0 uM by RT-qPCR analysis; type: functional, cell-based; settings: dose 0.5-2 µM, time 6-36 hrs, TDE = time-dependent effect
HepG2 [17] = test: Downregulation of Cyclin A2 mRNA expression in human HepG2 cells assessed as fragments per kilo base of exon per million mapped fragments by RT-qPCR analysis (reference value: 37.48 to 47.03); type: functional
HepG2 [18] = test: Induction of ferroptosis in human HepG2 cells assessed as log2 fold decrease in GPX4 mRNA expression by qRT-PCR analysis; type: functional
HepG2 [19] = test: Induction of ferroptosis in human HepG2 cells assessed as decrease in GPX4 protein expression at 2 uM measured after 6 hrs by Western blot analysis; type: functional, cell-based
HepG2 [20] = test: Cytotoxicity against human HepG2 cells assessed as reduction in cell viability incubated for 48 hrs by CCK-8 assay; type: functional, cell-based; settings: dose 0.78125-50 µM, DDE = dose-dependent effect
PC-3M = test: Cytotoxicity against human PC-3M cells assessed as reduction in cell viability by CCK-8 assay; type: functional, cell-based
HepG2 [21] = test: Downregulation of Cyclin A2 mRNA expression in human HepG2 cells at 0.5 to 2.0 uM by RT-qPCR analysis; type: functional, cell-based; settings: dose 0.5-2 µM, time 6-36 hrs, TDE = time-dependent effect
HepG2 [22] = test: Induction of ferroptosis in human HepG2 cells assessed as increase in ACSL4 mRNA expression measured after 6 to 36 hrs by qRT-PCR analysis; type: functional, cell-based; settings: dose 0.25-1 µM, time 6-36 hrs, DDE = dose-dependent effect
HepG2 [23] = test: Induction of cell cycle arrest in human HepG2 cells assessed as decrease in cells at G2 phase at 0.5 to 2 uM; type: functional, cell-based; settings: dose 0.5-2 µM
A549 = test: Cytotoxicity against human A549 cells assessed as reduction in cell viability by CCK-8 assay; type: functional, cell-based
HepG2 [24] = test: Induction of cell death in human HepG2 cells measured after 48 hrs by Annexin V-FITC/PI double staining based flow cytometry analysis; type: functional; settings: dose 0.5-2 µM, DDE = dose-dependent effect
HepG2 [25] = test: Induction of ferroptosis in human HepG2 cells assessed as increased in MDA level incubated for 36 hrs; type: functional, cell-based; settings: dose 0.5-2 µM, DDE = dose-dependent effect
HepG2 [26] = test: Downregulation of Cyclin D1 mRNA expression in human HepG2 cells assessed as fragments per kilo base of exon per million mapped fragments by RT-qPCR analysis (reference value: 59.65 to 61.74); type: functional
HepG2 [27] = test: Induction of ferroptosis in human HepG2 cells assessed as downregulation of GPX4 mRNA expression by measuring fragments per kilo base of exon per million mapped fragments by qRT-PCR analysis (reference value: 298.18 to 302.30); type: functional
HepG2 [28] = test: Induction of ferroptosis in human HepG2 cells assessed as increase in ACSL4 protein expression at 2 uM by Western blot analysis; type: functional, cell-based; settings: time 6-36 hrs, TDE = time-dependent effect
HepG2 [29] = test: Cytotoxicity against human HepG2 cells assessed as reduction in cell viability at 50 uM incubated for 48 hrs by CCK-8 assay; type: functional, cell-based
HepG2 [30] = test: Induction of ferroptosis in human HepG2 cells assessed as increase in intracellular ROS level at 2 uM incubated for 48 hrs by DCFH-DA staining based flow cytometry analysis; type: functional
MCF7 = test: Cytotoxicity against human MCF7 cells assessed as reduction in cell viability by CCK-8 assay; type: functional, cell-based
HepG2 [31] = test: Induction of ferroptosis in human HepG2 cells assessed as decreased in GSH level incubated for 36 hrs; type: functional, cell-based; settings: dose 0.5-2 µM, DDE = dose-dependent effect
HepG2 [32] = test: Induction of ferroptosis in human HepG2 cells assessed as increase in intracellular ROS level incubated for 48 hrs by DCFH-DA staining based fluorescence microscopic analysis; type: functional, cell-based; settings: dose 0.25-1 µM, DDE = dose-dependent effect
HepG2 [33] = test: Induction of cell cycle arrest in human HepG2 cells assessed as increase in G1 phase at 0.5 to 2 uM; type: functional, cell-based; settings: dose 0.5-2 µM
HepG2 [34] = test: Downregulation of Cyclin B1 mRNA expression in human HepG2 cells at 0.5 to 2.0 uM by RT-qPCR analysis; type: functional, cell-based; settings: dose 0.5-2 µM, time 6-36 hrs, TDE = time-dependent effect
HepG2 [35] = test: Cytotoxicity against human HepG2 cells assessed as reduction in cell viability at 10 uM relative to control; type: functional
HepG2 [36] = test: Antimigratory activity against human HepG2 cells assessed as reduction in cell migration measured after 24 hrs by crystal violet staining based transwell assay; type: functional; settings: dose 0.125-0.5 µM, DDE = dose-dependent effect

Sequence of G1/S-specific cyclin-D1 (Homo sapiens) (P24385 whole entry): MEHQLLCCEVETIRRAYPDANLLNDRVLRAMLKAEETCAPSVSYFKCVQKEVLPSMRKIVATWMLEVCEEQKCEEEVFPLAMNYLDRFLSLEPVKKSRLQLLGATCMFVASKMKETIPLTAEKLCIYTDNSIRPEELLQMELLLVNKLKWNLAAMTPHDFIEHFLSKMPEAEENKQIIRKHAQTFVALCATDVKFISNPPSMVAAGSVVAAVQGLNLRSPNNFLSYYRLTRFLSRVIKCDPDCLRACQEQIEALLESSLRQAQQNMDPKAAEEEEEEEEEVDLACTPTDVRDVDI

C=C(C)[C@@H]1CC[C@]2(C(=O)OCCCCCn3cc(CCN)c4ccccc43)CC[C@]3(C)[C@H](C[C@H]4OC(=O)C[C@@H](O)[C@]5(C)[C@@H]4[C@@]3(C)CC[C@H]5C(=C)C)[C@@H]12
Activity [1]: 14.11 | Activity (HepG2 [2]): Dde | inhibition (HepG2 [3]): Dde | Activity (HepG2 [4]): 10.55% | inhibition [5]: Dde | Activity (HepG2 [6]): Tde | inhibition (HepG2 [7]): Dde | Activity (HepG2 [8]): 39.59 | Activity (HepG2 [9]): Dde | inhibition at 1.562 µM (HepG2 [10]): 95.1% | Activity (HepG2 [11]): Tde | inhibition (HepG2 [12]): Dde | Activity (HepG2 [13]): Dde | Activity [14]: Active | Activity (HepG2 [15]): Dde | Activity (HepG2 [16]): Tde | Activity (HepG2 [17]): 30.38 | log2FC (HepG2 [18]): -0.29 | Activity (HepG2 [19]): Active | Activity (HepG2 [20]): Dde | IC50 (PC-3M): 3.93 µM | Activity (HepG2 [21]): Tde | Activity (HepG2 [22]): Dde | Activity (HepG2 [23]): Active | IC50 (A549): 5.44 µM | Activity (HepG2 [24]): Dde | Activity (HepG2 [25]): Dde | Activity (HepG2 [26]): 53.4 | Activity (HepG2 [27]): 221.77 | Activity (HepG2 [28]): Tde | Activity (HepG2 [29]): Active | Activity (HepG2 [30]): 96.39% | IC50 (MCF7): 5.34 µM | Activity (HepG2 [31]): Dde | Activity (HepG2 [32]): Dde | Activity (HepG2 [33]): Active | Activity (HepG2 [34]): Tde | Activity (HepG2 [35]): 20.15% | Activity (HepG2 [36]): Dde
